Data on 22 compounds can be found in ChEMBL document CHEMBL5512622, “Ecto-nucleotide pyrophosphatase/phosphodiesterase 1 inhibitors: Research progress and prospects” (Eur J Med Chem, 2024).

Molecules are shown by their SMILES.

Series [1] addresses T1, Ectonucleotide pyrophosphatase/phosphodiesterase family member 1 (Homo sapiens, UniProt P22413).
T1 sequence (P22413 whole entry): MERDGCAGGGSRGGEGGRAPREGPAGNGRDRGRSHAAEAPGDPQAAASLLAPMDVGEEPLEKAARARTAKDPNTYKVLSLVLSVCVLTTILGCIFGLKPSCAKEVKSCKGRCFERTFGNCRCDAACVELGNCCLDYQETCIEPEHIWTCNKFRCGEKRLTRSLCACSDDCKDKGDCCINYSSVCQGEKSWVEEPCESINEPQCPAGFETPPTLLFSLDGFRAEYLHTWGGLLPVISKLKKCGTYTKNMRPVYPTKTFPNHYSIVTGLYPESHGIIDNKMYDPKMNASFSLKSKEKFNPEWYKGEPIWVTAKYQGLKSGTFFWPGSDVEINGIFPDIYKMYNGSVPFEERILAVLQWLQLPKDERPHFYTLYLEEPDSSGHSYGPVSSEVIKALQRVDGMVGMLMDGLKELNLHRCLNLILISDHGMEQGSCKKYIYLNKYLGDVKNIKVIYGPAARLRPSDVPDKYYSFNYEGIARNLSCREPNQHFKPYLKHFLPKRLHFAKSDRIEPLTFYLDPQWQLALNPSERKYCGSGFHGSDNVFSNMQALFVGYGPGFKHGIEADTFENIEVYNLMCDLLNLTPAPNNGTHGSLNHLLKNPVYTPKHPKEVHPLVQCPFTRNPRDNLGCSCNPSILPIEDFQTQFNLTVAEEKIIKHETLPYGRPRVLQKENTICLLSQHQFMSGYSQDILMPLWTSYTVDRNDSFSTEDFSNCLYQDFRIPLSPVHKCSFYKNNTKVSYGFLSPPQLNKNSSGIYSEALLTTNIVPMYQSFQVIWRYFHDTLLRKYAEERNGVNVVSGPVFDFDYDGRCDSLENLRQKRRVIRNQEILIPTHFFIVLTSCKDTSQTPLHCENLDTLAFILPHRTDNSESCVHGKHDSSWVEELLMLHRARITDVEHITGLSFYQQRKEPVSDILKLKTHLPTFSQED
Kind of series: Inhibition of recombinant human ENPP1 using ATP as substrate assessed as inhibition constant incubated for 30 mins by Lineweaver-Burk plot analysis.

Series [2] concerns the target T1, Ectonucleotide pyrophosphatase/phosphodiesterase family member 1. Kind of series: Inhibition of ENPP1 (unknown origin) using TMP-pNP as substrate preincubated for 10 mins followed by substrate addition and measured immediately under pH 8.8 by absorbance based multimode plate reader analysis.
Series [3] shares this target. Kind of series: Inhibition of ENNP1 (unknown origin) using 2',3'-cGAMP as substrate preincubated with compound followed by substrate addition and measured after 60 mins by AMP-Glo reagent based assay.
The nature of series [4]: Cmax in CD-1 mouse at 50 mg/kg, po measured after 24 hrs by LC-MS/MS analysis. It is filed as ADME, organism-based. The following applies: in vivo.
Series [5] has as its target T2, Ectonucleotide pyrophosphatase/phosphodiesterase family member 1 (Mus musculus, UniProt P06802).
T2 sequence (P06802 whole entry): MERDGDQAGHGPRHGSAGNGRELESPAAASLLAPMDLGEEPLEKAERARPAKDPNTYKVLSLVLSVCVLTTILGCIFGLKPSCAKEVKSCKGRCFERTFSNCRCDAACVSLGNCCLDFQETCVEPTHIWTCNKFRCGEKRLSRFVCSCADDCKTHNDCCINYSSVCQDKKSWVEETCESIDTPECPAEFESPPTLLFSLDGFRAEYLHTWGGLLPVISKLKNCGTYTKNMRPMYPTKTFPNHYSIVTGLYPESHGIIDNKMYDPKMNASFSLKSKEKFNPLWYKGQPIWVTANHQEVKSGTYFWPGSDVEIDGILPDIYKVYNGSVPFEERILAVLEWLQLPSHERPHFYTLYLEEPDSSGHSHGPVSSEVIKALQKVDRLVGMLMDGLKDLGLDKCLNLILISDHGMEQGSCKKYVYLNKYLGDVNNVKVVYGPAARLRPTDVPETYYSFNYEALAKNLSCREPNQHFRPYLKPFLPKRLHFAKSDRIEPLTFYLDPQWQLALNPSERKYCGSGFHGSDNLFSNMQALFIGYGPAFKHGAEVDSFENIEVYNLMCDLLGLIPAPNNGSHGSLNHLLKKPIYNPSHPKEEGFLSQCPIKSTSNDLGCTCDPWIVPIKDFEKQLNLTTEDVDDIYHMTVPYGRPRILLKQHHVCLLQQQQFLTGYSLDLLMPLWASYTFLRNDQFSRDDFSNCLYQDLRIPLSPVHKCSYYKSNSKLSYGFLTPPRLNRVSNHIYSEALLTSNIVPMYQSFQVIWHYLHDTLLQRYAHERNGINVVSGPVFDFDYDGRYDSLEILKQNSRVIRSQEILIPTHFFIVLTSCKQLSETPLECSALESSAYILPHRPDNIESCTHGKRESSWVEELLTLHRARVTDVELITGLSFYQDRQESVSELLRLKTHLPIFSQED
Put plainly: Inhibition of ENPP1 in mouse plasma using [32P]cGAMP as substrate. Type of series: cell-free.

A short description of series [6]: AUClast in CD-1 mouse at 50 mg/kg, po measured after 24 hrs by LC-MS/MS analysis. Type of series: ADME, organism-based. The following applies: in vivo.
The target of series [7] is T1, Ectonucleotide pyrophosphatase/phosphodiesterase family member 1. Put plainly: Inhibition of ENPP1 (unknown origin) using cGAMP as substrate assessed as inhibition constant at pH 7.4.
In another series the test system is MDA-MB-231. Put plainly: Antiproliferative activity against human MDA-MB-231 cells incubated for 48 hrs by CCK8 assay. The note with it: MDA-MB-231, 48 h. For orientation: Tetrazolium assays rely on reduction of a dye to a coloured formazan, in cell work by metabolically active cells.
Series [8] concerns the target T1, Ectonucleotide pyrophosphatase/phosphodiesterase family member 1. Put plainly: Inhibition of ENPP1 in HEK293 cells using 2',3'-cGAMP as substrate by AMP-Glo assay. It is filed as cell-based.
The nature of series [9]: Cmax in ICR mouse at 5 mg/kg, po measured after 24 hrs by LC/MS/MS analysis. It is filed as ADME, organism-based. The note with it: in vivo.
Series [10] is described as follows: AUC in ICR mouse at 5 mg/kg, po measured after 24 hrs by LC/MS/MS analysis. Type of series: ADME, organism-based. The following applies: in vivo.
Series [11] is described as follows: Half-life in ICR mouse at 5 mg/kg, po measured after 24 hrs by LC/MS/MS analysis. It is filed as ADME, organism-based. The following applies: in vivo.
The target of series [12] is T1, Ectonucleotide pyrophosphatase/phosphodiesterase family member 1. Put plainly: Inhibition of recombinant human ENPP1 using p-NP-TMP as substrate incubated for 45 mins by absorbance based analysis.
For series [13] the target is unchanged. Kind of series: Inhibition of recombinant human ENPP1 using 2',3'-cGAMP as substrate preincubated for 5 to 10 mins followed by substrate addition and measured after 90 mins by […] assay. (In general: In ADP-Glo the light output rises with the ADP produced.)
For series [14] the target is unchanged. Kind of series: Inhibition of human ENPP-1 using 2',3'-cGAMP as substrate preincubated for 15 mins followed by substrate addition and measured after 30 mins by AMP-Glo reagent based assay.
The target is the same in series [15]. Put plainly: Inhibition of recombinant human ENPP-1 using AMP-pNP as substrate incubated for 20 mins by absorbance based plate reader analysis.
Series [16] has as its target T3, Ectonucleotide pyrophosphatase/phosphodiesterase family member 1 (Homo sapiens) (UniProt P22413).
T3 sequence (whole entry): T1 sequence (P22413 whole entry)
Put plainly: Binding affinity to recombinant human ENPP1 assessed as thermal stabilization by measuring change in melting temperature incubated for 5 mins by SYPRO orange dye based thermal shift assay.

As usually defined, the Ki is the dissociation constant of the complex between target and ligand, obtained from inhibition or displacement. Take `CSc1nc(N)c2ncn([C@@H]3O[C@H](COP(=O)(O)OP(=O)(O)O)[C@@H](O)[C@H]3O)c2n1`: in series [1], the Ki was found to be 5000 nM.

As for `CSc1nc(N)c2ncn([C@@H]3O[C@H](COP(=O)(O)OP(=O)(O)OP(=O)(O)O)[C@@H](O)[C@H]3O)c2n1`, the Ki in series [1] worked out at 5000 nM.

Turning to `NC(=O)c1c[nH]c2c(NCc3ccc(B(O)O)cc3)ncnc12`, the Ki in series [2] was less than 100 nM.

As usually defined, the IC50 is the concentration that gives 50% inhibition. Consider `COc1ncc2nc(C(F)(F)F)n(Cc3ncc(S(N)(=O)=O)cc3F)c2c1-c1ccccc1`, for which the IC50 in [3] is less than 1 nM.

A word on the Cmax: it is the highest concentration seen after dosing. As usually defined, the AUC(0-t) is the area under the concentration-time curve up to a stated or last time point. Read a low AUC(0-t) as less exposure. As for `COc1cccc2c(N3CCC(CCP(=O)(O)O)CC3)ncnc12`, the Cmax in series [4] amounted to 67.2 ng/mL. Moreover, the Ki in [5] is 4 nM; in series [7], less than 2 nM. In series [6], the AUC(0-t) at 24 h was 344 ng·h/mL.

For the compound `Nc1ncnc2c1ncn2[C@@H](C=O)O[C@@H](C=O)COP(=O)(O)OP(=O)(O)OP(=O)(O)O`, the Ki in [1] was found to be 5000 nM.

In turn, `COc1ccc2[nH]c(SCc3nc4cc(F)ccc4c(=O)[nH]3)nc2c1` came in with an IC50 in the series with MDA-MB-231 of less than 1000 nM.

Compound `COc1cccc2c(N3CCC(CC(CNC(=O)[C@@H](N)C(C)(C)C)P(=O)(O)O)CC3)ncnc12` (stereo partly specified) registered a Cmax in series [4] of 1680 ng/mL. The same compound gave an IC50 in series [8] of less than 10 nM. This compound also gave an AUC(0-t) at 24 h in series [6] of 4130 ng·h/mL. Also, the Ki in series [7] is less than 10 nM.

Usually AUC stands for the area under the concentration-time curve, a measure of exposure. As usually defined, the half-life is the time needed for the level to fall by half in the phase considered. Regarding `COc1ccc2c(Oc3ccc(CC(=O)NO)cc3)ccnc2n1`, the Cmax in [9] is 736 ng/mL. This compound also gave an AUC at 24 h in series [10] of 619 ng·h/mL. The same compound gave a half-life in [11] of 3.26 h.

Take `COc1ccc(NC(=O)CSc2nc(C(=O)OCC(O)CO)c[nH]2)cc1OC` (stereo unspecified): in [12], the IC50 was less than 200 nM.

In the case of `COc1cccc2c(N3CCC(CCP(=O)(O)O)CC3)c(C#N)cnc12`, the Ki in series [7] was less than 2 nM.

On to `COc1ccc(NC(=O)CSc2nc(C(N)=O)c[nH]2)cc1OC`, for which the IC50 in series [12] was less than 200 nM.

As to `Nc1ncnc2c1ncn2[C@@H]1O[C@H](COP(=O)(O)CP(=O)(O)O)[C@@H](O)[C@H]1O` [PHOSPHOMETHYLPHOSPHONIC ACID ADENOSYL ESTER], in series [1], the Ki is 5000 nM.

Take `Nc1ccc(F)c(-c2ccnc3c2CCC(=O)N3)c1`: in series [13], the IC50 is less than 1000 nM.

`COc1cc2ncc3ncn(Cc4ccc(CS(N)(=O)=O)cn4)c3c2cc1OC`: the 50% inhibitory concentration (IC50) in series [14] and in [15] was less than 100 nM throughout.

On to `COc1ccc2c(c1)nnn2-c1ccc(CNS(N)(=O)=O)c(F)c1`, for which the IC50 in series [13] was less than 1000 nM.

As to `NC(=O)c1c[nH]c2c(NCc3ccc(P(=O)(O)O)cc3)ncnc12`, in series [2], the Ki is less than 100 nM.

Compound `NC(=O)c1ccc2c(ncn2Cc2ccc(B(O)O)cc2)n1` displayed a concentration for half-maximal inhibition (IC50) in series [2] of less than 10 nM.

For the compound `COc1ccc(NC(=O)CSc2nc(C(=O)O)c[nH]2)cc1Cl`, the IC50 in series [12] is less than 200 nM.

What is called ΔTm is the change in melting temperature against a reference sample. Take `COc1ccc(NC(=O)CSc2nc3c(C)c(C#N)ncc3[nH]2)cc1O`: in series [16], the ΔTm amounted to 1.11 °C.

As to `COc1cc2c(-c3ccc(CNS(N)(=O)=O)c(F)c3)n[nH]c(=O)c2cc1OC`, the IC50 in series [13] was less than 1000 nM.

Turning to `Nc1ncnc2c1ncn2[C@@H]1O[C@H](COP(=O)(O)OP(=O)(O)OP(=O)(O)O)[C@@H](OC(=O)c2ccc(C(=O)c3ccccc3)cc2)[C@H]1O`, in series [1], the Ki was 5000 nM.
